# Assay results: patent US12122816B2, “Long acting peptide tyrosine tyrosine (PYY) analogs and methods of use” (Intarcia Therapeutics, Inc., priority 2020, dated 2024)
# Read-outs that look alike come from different tables or passages of the source.
# What was measured:
# [1] = Solubility in DI water at room temperature (visual inspection); assay type: physicochemical; settings: DI water, TFA salt form, read-out: Solubility (in Water, RT)
# Method: The analog polypeptides described herein were tested for solubility in saline or in aqueous (DI water) at room temperature. Samples were visually inspected for clarity of the sample, any appearance of turbidity or haziness.
# [2] = In vitro metabolic stability in kidney brush border membranes (kBBM); assay type: in vitro ADME; settings: 1 mcM peptide, 37° C.
# Method: In vitro incubations in kidney brush border membrane (kBBM) preparations were used to characterize the ability of peptides to resist degradation by proteases and peptidases in the systemic circulation. kBBM were selected because they contain a high concentration of a diverse set of proteases and peptidases, many of which are present throughout the body.
# Brush border membranes from rat and human kidney tissue were prepared via centrifugation and stored at −70° C. Thawed stocks of rat or human kBBM were diluted to the appropriate concentration in 25 mM HEPES buffer (pH 7.4) containing 1% casein and aliquoted into a 96-well plate. The kBBM solutions were pre-warmed for 10 minutes at 37° C. […] The final concentration of kBBM in each incubation was 50 mcg protein/mL. Reactions were maintained at 37° C. in a shaking water bath. […] Quenched samples were centrifuged at 2178×g for 10 min and then a portion of the supernatants were transferred to a clean 96-well plate and diluted 1:1 with water. Samples were analyzed by UPLC-MS/MS.
# [3] = In vitro stability in subcutaneous (SC) tissue homogenates; assay type: in vitro ADME; settings: subcutaneous tissue homogenate, pH 7.4; human SC tissue homogenate 1.0 mg protein/mL, 10 mcM peptide, 37° C.; read-out: (H)SC tissue stability t½ (converted)
# Method: In vitro incubations in subcutaneous (SC) tissue homogenates were used to characterize the ability of peptides to resist pre-systemic degradation by proteases and peptidases after SC administration. […] Peptides with high SC bioavailability are stable in this assay, while peptides with low SC bioavailability are unstable in this assay.
# Human SC tissue was homogenized in cold 25 mM HEPES buffer (pH 7.4, 10-fold volume based on sample weight), and then filtered through a double layer of cheesecloth. The filtrates were aliquoted, flash frozen on a methanol/dry ice bath and stored at −80° C. The protein concentration of each pooled batch was determined using the BCA protein assay. Thawed stocks of human SC tissue homogenates were diluted to 1.0 mg protein/mL in 25 mM HEPES buffer (pH 7.4) and aliquoted into a 96-well plate. The diluted SC homogenates were pre-warmed for 10 minutes at 37° C. […] Reactions were maintained at 37° C. in a shaking water bath. […] Quenched samples were centrifuged at 2178×g for 10 min and then a portion of the supernatants were transferred to a clean 96-well plate and diluted 1:10 with water. Samples were analyzed by UPLC-MS/MS.
smiles,measurement,setting,value
CC(C)C[C@H](NC(=O)[C@H](Cc1ccc(O)cc1)NC(=O)[C@H](Cc1c[nH]cn1)NC(=O)[C@H](CCCNC(=N)N)NC(=O)[C@H](CC(C)C)NC(=O)[C@H](CC(=O)O)NC(=O)[C@@H](CCCCNC(=O)CC[C@H](NC(=O)CC[C@H](NC(=O)CCCCCCCCCCCCCCCCCCC(=O)O)C(=O)O)C(=O)O)NC(=O)[C@H](Cc1ccc(O)cc1)NC(=O)[C@H](Cc1ccc(O)cc1)NC(=O)[C@H](CCCNC(=N)N)NC(=O)[C@H](CC(N)=O)NC(=O)[C@H](Cc1c[nH]c2ccccc12)NC(=O)[C@H](CCC(=O)O)NC(=O)[C@H](CCC(=O)O)NC(=O)[C@@H]1CCCN1C(=O)[C@H](CO)NC(=O)[C@H](C)NC(=O)[C@H](CC(=O)O)NC(=O)[C@H](CCCCN)NC(=O)CNC(=O)[C@@H]1CCCN1C(=O)[C@H](C)NC(=O)[C@H](CCC(=O)O)NC(=O)[C@@H]1CCCN1C(=O)[C@H](CCCCN)NC(=O)[C@@H]1CCCN1)C(=O)N[C@@H](CC(N)=O)C(=O)N[C@@H](Cc1c[nH]c2ccccc12)C(=O)N[C@@H](CC(C)C)C(=O)N[C@H](C(=O)N[C@@H](CCCNC(=N)N)C(=O)N[C@@H](CCC(N)=O)C(=O)N[C@@H](CCCNC(=N)N)C(=O)N[C@@H](Cc1ccccc1)C(N)=O)[C@@H](C)O [Compound A14],solubility,[1],79 mg/mL
same,half-life at 1 mcM,"[2]; pH 7.4, human kBBM 50 mcg protein/mL, read-out: hkBBM t½ (converted)",> 12 h
same,half-life at 1 mcM,"[2]; pH 7.4, rat kBBM 50 mcg protein/mL, read-out: rkBBM t½",> 12 h
same,half-life at 10 mcM,[3],4.5 h
